Series [1] has as its target T1, human recombinant CYP2A6 (Homo sapiens, UniProt P10635). The series is described as follows: biochemical.
For series [2] the following is noted: in vivo; cited from earlier work.
The conditions of series [3]: poor metabolizers, 15 mg dose; cited from earlier work.
For series [4] the following is noted: cited from earlier work.
For another series, the target named is human recombinant CYP3A4 (Homo sapiens, UniProt P08684). The series is described as follows: Inhibition of dibenzylfluorescein metabolism by cDNA-expressed CYP3A4 (fluorimetric). The following applies: read-out: IC50 (concentration that yields 50% inhibition of the metabolism of dibenzyl-fluorescein), dibenzyl-fluorescein 5 · 10^−7 M.
Sequence of human recombinant CYP3A4 (P08684 whole entry): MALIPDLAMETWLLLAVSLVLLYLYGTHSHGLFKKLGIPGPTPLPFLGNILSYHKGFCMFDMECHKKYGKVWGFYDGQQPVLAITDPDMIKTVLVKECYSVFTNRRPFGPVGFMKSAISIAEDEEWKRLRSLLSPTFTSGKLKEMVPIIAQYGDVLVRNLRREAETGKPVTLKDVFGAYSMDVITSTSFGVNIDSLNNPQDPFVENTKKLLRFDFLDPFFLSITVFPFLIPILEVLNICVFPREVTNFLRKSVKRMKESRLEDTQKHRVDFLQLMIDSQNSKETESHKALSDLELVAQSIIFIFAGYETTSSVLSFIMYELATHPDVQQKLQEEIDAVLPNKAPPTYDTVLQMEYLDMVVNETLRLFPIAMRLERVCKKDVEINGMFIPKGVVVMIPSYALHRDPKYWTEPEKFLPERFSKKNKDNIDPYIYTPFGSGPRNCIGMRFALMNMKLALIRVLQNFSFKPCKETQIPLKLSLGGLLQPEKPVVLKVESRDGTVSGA
Series [5] addresses T1, human recombinant CYP2A6. The following applies: recombinant enzyme.

Where two headings read alike, the source gives them in different places.

T1 sequence (P10635 whole entry): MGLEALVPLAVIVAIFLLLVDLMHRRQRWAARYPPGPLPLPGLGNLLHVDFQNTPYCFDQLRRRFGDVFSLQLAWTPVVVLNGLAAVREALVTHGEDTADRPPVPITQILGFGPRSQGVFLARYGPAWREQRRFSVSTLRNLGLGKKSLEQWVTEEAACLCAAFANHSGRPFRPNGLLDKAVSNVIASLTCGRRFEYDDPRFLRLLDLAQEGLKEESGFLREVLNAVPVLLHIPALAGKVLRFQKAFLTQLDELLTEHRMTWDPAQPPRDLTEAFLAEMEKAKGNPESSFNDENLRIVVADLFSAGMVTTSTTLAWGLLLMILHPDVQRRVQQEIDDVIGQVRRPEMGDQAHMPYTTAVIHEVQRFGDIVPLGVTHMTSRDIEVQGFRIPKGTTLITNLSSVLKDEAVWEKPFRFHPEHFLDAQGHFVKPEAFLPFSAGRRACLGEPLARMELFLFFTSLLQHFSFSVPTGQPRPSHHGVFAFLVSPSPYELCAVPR

As to `Br.COc1ccc2c(c1)[C@@]13CCCC[C@H]1[C@@H](C2)N(C)CC3.O` [Dextromethorphan, 3 Methoxy-17-methylmorphinan hydrobromide monohydrate], the IC50 on human recombinant CYP2A6 [1] amounted to 1820 nM. Moreover, the “part of the dose forming minor metabolites (D-methoxymorphinane, D-hydroxmorphinane)” value in series [2] is on record as “Less than 15%”. Further, the “ratio of metabolite to parent drug in 8 hour urine sample” value in series [3] is 10 to 1. Besides, the plasma level entry in series [4] (fast metabolizers, 30 mg dose, four hours post ingestion) was “less than 5 ng/mL”; in series [4] (intermediate metabolizers, oral 30 mg, 4 hours), 10 to 20 ng/mL; in series [4] (intermediate metabolizers, oral 30 mg, 24 hours postingestion) it was “less than 5 ng/mL”; in series [4] (oral 30 mg, 4 hours (continues the poor metabolizers passage of b121)) it was “greater than 10 ng/mL”; in series [4] (oral 30 mg, 24 hours (continues the poor metabolizers passage of b121)), “greater than 5 ng/mL”.
Regarding `COc1ccc(CCN(CCCC(C#N)(c2ccc(OC)c(OC)c2)C(C)C)CC(F)(F)F)cc1OC` (stereo not shown) [N-(2,2,2-trifluoroethyl)norverapamil], the IC50 at human recombinant CYP3A4 was 1930 nM.
Consider `CN1CC[C@]23CCCC[C@H]2[C@H]1Cc1ccc(OCC(F)(F)F)cc13` [O-(2,2,2-trifluoroethyl)-N-methylmorphinan], for which the IC50 at human recombinant CYP2A6 [5] was found to be 425 nM.
